Laboratory results reported in PMC13198257, “An aerosolized dual-action autotaxin inhibitor-PPARγ agonist for the treatment of pulmonary fibrosis” (Cell Reports Medicine, 2026).

System: liver
Assay: Serum ALT/AST after 2 weeks of inhaled EL244
Type: in vivo, mice
Settings: 2 weeks inhaled 15 mg/kg o.d.
Experimental: Figure S7. Inhaled prophylactic EL244 administration attenuates BLM-induced pulmonary fibrosis. Related to […]
EL244 was administered via inhalation at 15 mg/kg, once daily, from one day before to 14 days after bleomycin (BLM) administration (day 0). The compound was dissolved in 15% Kolliphor in saline. The vehicle (15% Kolliphor in saline) was administered to both the SAL and BLM control groups.
(A) Weight change in the different mouse groups during the 2 weeks of the pulmonary fibrosis experiment.
(B-D) Respiratory mechanics assessed using the FlexiVent system (n=6,8,7). Parameters include mean static lung compliance (B), mean respiratory system compliance (C) and mean total lung capacity (D).
(E) Total protein concentration in BALFs, as determined with the Bradford assay (n=6,8,7).
(F) Inflammatory cell numbers in BALFs, as counted with a hematocytometer (n=6,8,7).
(G) Soluble collagen levels in the BALFs were detected with the direct red assay (n=6,8,7). […]
(J) Quantification of fibrosis severity in H&E-stained lung sections via Ashcroft scoring (n=6,8,7). […]
Following normality testing, statistical significance was assessed with one-way ANOVA and post-hoc Tukey’s test (B, C, D, E, K/ALT, K/ALT/AST) or Welch ANOVA and post-hoc Games-Howell test (F, G, H, J) or Kruskal Wallis and post-hoc Dunn’s test (K/AST); */**/***/**** denote p<0.05/0.01/0.001/0.0001, respectively.

`O=C1NC(=O)C(Cc2ccc(OCCC3CCN(C(=O)OCc4cc(Cl)cc(Cl)c4)CC3)cc2)S1` (stereo not shown) [EL244, 3,5-dichlorobenzyl 4-(2-(4-((2,4-dioxothiazolidin-5-yl)methyl)phenoxy)ethyl)piperidine-1-carboxylate] was tested, and the “Liver toxicity (ALT/AST levels)” value was “did not cause any appreciable toxicity in the liver”.
